{
  "source": "paper PMC12454639",
  "about": "“Direct disassembly of α-syn preformed fibrils into α-syn monomers by an all-D-peptide” (NPJ Parkinson's Disease, 2025)",
  "key": {"[1]": {"system": "α-synuclein monomer seeded with small α-syn PFF", "test": "CD spectroscopy of the seeded aggregation assay", "format": "biochemical", "settings": "30 µM SVD-1a, 500 nM PFF, 15 µM α-syn monomer, PBS pH 7.4, 37 °C, 24 h", "description": "(§1) Far-UV circular dichroism (CD) data were collected using a Jasco J-1100 spectropolarimeter (Jasco, GE). 350 µl samples were pooled and loaded into a high precision quartz cuvette with a path length of 1 mm (Hellma group, GE). A scan speed of 20 nm/min with five accumulations per sample was performed using far UV wavelengths from 260 to 190 nm. Baseline was corrected by subtracting measurements of the reference sample only.\n(§2) Supplementary Fig. 13: Analysis of the seeded aggregation assay in the presence and absence of SVD-1a using circular dichroism (CD) spectroscopy. Small α-syn PFF (500 nM) were incubated in PBS (pH 7.4) at 37 °C under quiescent conditions for 24 hours, either alone or in the presence of 15 µM α-synuclein monomer and/or 30 µM SVD-1a. For each condition and time point, three replicates (each 120 µl) were pooled and analyzed by CD spectroscopy at 0, 2, 8, and 24 hours. Far-UV ellipticity was measured in a quartz cuvette (path length = 10 mm) using a J-1100 CD spectrometer (Jasco, GE). […] (D) Co-incubation of 500 nM α-synuclein PFFs with 15 µM α-synuclein monomer induced a structural transition towards β-sheet formation, as reflected in the CD spectrum (referenced to spectrum in (A))."}, "[2]": {"system": "α-synA53T–YFP cells (HEK293T)"}, "small α-syn PFF": {"system": "small α-syn PFF", "test": "Western blot of small α-syn PFF", "format": "biochemical", "settings": "200 nM PFF with 250, 500, 750, 1000 nM SVD-1a, 72 h, 37 °C; antibody Syn211", "description": "Samples of 200 nM small α-syn PFF or α-syn monomer were incubated with 0, 250, 500, 750 and 1000 nM SVD-1a for 72 h at 37 °C in PBS pH 7.4 with 0.05% sodium azide. Samples were then resolved via SDS–PAGE on 12% TGX gels (Bio-Rad, Hercules, USA) using the Mini-PROTEAN Tetra Cell (Bio-Rad, Hercules, USA). Proteins were transferred to a PVDF membrane (0.2 µm pore size) (Trans-Blot Turbo Mini PVDF Transfer Pack, Bio-Rad, Hercules, USA) at 25 V, 1.3 A for 7 min. Blocking of the membrane was carried out with 2% nonfat dried milk powder in TBS + 0.05% Tween 20 for 1 h at room temperature. Anti-α-synuclein antibody Syn211 (RRID:AB_628318, Santa Cruz Biotechnology, Dallas, TX, USA) was used as primary antibody at a concentration of 1 µg/ml in TBS-T for 1 h at RT. As a secondary antibody, an HRP-coupled goat anti-mouse IgG (RRID:AB_228307, Thermo Fisher Scientific, Waltham, MA, USA) was used at 0.2 µg/ml in TBS-T for 1 h at RT. […]\nSupplementary Figure 11: Western blot of small α-syn PFF samples incubated with SVD-1a. […] A PFF and monomer sample that were incubated without SVD-1a served as controls. α-Syn was detected with Syn211. A prominent monomer band was present between the 15 kDa- and 20 kDa marker bands, detected with shorter exposure time (left). […] In the upper part of the blot, above the marker range, PFFs were detected using longer exposure time due to weaker signal (right)."}, "[3]": {"test": "CD spectroscopy of SVD-1a alone", "format": "physicochemical", "settings": "30 µM, PBS pH 7.4, 37 °C", "description": "as §1, §2"}},
  "note": "Square brackets hold non-standard residues; d marks the D form. Peptide text beside a SMILES is read from it.",
  "data": [
    {"smiles": "CC[C@@H](C)[C@@H](NC(=O)[C@@H](Cc1c[nH]cn1)NC(=O)[C@@H](CCC(=O)O)NC(=O)[C@@H](CCC(N)=O)NC(=O)[C@@H](Cc1c[nH]c2ccccc12)NC(=O)[C@@H](Cc1ccc(O)cc1)NC(=O)[C@H](NC(=O)[C@@H](CCC(=O)O)NC(=O)[C@@H](Cc1c[nH]cn1)NC(=O)[C@H](NC(=O)[C@H]1CCCN1C(=O)[C@@H](CC(C)C)NC(=O)[C@H](N)CCCNC(=N)N)[C@H](C)O)[C@H](C)O)C(=O)N[C@H](Cc1c[nH]c2ccccc12)C(=O)N[C@H](Cc1c[nH]cn1)C(=O)N[C@H](C)C(=O)N[C@H](CCCNC(=N)N)C(=O)N[C@H](CCCNC(=N)N)C(=O)N[C@H](CCCNC(=N)N)C(=O)N[C@H](CCCNC(=N)N)C(=O)N[C@H](CCCNC(=N)N)C(N)=O", "note": "[SVD-1a] (H-[dR][dL][dP][dT][dH][dE][dT][dY][dW][dQ][dE][dH][dI][dW][dH][dA][dR][dR][dR][dR][dR]-NH2)", "values": [
      {"measurement": "α-syn secondary structure under seeded conditions", "setting": "[1]", "result": "stabilized the α-synuclein monomer in its random coil conformation throughout the incubation period"},
      {"measurement": "cell viability, PFF-seeded α-synA53T–YFP cells", "setting": "[2]", "result": "did not induce significantly different luminescence in comparison to unseeded cells or seeded cells without peptide treatment"},
      {"measurement": "intensity of higher MW α-syn bands", "setting": "small α-syn PFF", "result": "progressively reduced in presence of higher SVD-1a concentrations"},
      {"measurement": "secondary structure of peptide alone (CD)", "setting": "[3]", "result": "random coil secondary structure"}
    ]}
  ]
}
